The results in this text go back to patent US11957703B2, “Modulating Nudix homology domain (NHD) with nicotinamide mononucleotide analogs and derivatives of same” (President and Fellows of Harvard College, priority 2017, dated 2024).

Assay [1] deals with T1, PARP1-DBC1 complex (Homo sapiens, UniProt Q8N163).
T1 construct: expressed in transfected cells; host or cells: 293T cells stably expressing Flag-DBC1 (retroviral pMSCVpuro-Flag-DBC1)
Put plainly: PARP1-DBC1 dissociation assay (Flag-DBC1 immunoprecipitates incubated with molecules). Format: binding. The procedure: (§1) Protein extracts from 293T or mouse liver tissues were lysed in ice-cold buffer (150 mM NaCl, 1 mM EDTA, 1 mM EGTA, 1% Triton X-100, 0.5% NP-40, 10 mM Tris HCl, pH 7.4) supplemented with protease inhibitors cocktail cOmplete tablets (Roche) and phosphatase inhibitor cocktail 2 and 3 (Sigma). Protein concentrations were determined by the Bradford protein assay (Bio-rad). Flag-M2 agarose beads or anti-V5 agarose affinity gel (Sigma) were mixed with the lysate supernatant. Immunoprecipitation was allowed to proceed for 2 hours up to overnight at 4° C. with gentle rotation. After 4 washes with lysis buffer, proteins were either directly boiled in SDS-PAGE sample buffer or eluted from the agarose beads using 3×FLAG peptides (Sigma).
(§2) Cell lysates or Co-IP samples were run on homemade 10% or 4-20% gradient pre-cast SDS-PAGE gels (Bio-Rad) under reducing conditions, and then transferred to a polyvinylidene difluoride (PVDF) membrane (Millipore). Membranes were blocked with 5% non-fat dry milk in TBS-Tween (10 mM Tris HCl, pH 7.5, 150 mM NaCl, and 0.1% Tween-20). Antibodies were used at the following concentrations: anti-SIRT1 (Santa Cruz, SC-15404) at 1:500, anti-DBC1 (Bethyl Labotatories, A300-434A) at 1:1000, anti-PARP1 (Cell Signaling, #9542L) at 1:1000, anti-γH2AX (Abcam, ab2893) at 1:1000, anti-H2AX (Abcam, ab11175) at 1:1000, anti-NMNAT1 (Abcam, ab45548) at 1:1000, anti-GAPDH (Millipore, MAB374) at 1:3000, anti-V5 (Invitrogen, R960-25) at 1:3000, anti-beta-tubulin (Upstate, 05-661) at 1:1000, anti-α-actin (Millipore, MAB1501R) at 1:2000, anti-Flag (Sigma, F7425) at 1:3000, anti-PARG (Abcam, ab16060) at 1:1000, p53 (Calbiochem, OP43) at 1:1000, RAD51 (Calbiochem, PC130) at 1:1000, p21 (Neomarker-Labvision-Thermal Fisher, RB-032-P1) at 1:1000, SIRT6 (Cell signaling, D8D12) at 1:1000, Streptavidin-HRP at 1:1000 (Trevigen #4800-30-06), anti-PAR (Trevigen, #4335-MC-100; Abcam, ab14459) at 1:1000 and anti-PARP2 (Santa Cruz, SC-393310) at 1:200 overnight at 4° C. The antibodies ATM, ATR, BRCA1, Chk1, Chk2, DNA-PKs and XRCC1 were all from the Bethyl Laboratories. Phospho-Chk1, phospho-Chk2 and phosphor-p53 antibodies were from a DNA Damage Antibody Sampler Kit (Cell Signaling #9947). Secondary antibodies were horseradish peroxidase-coupled sheep anti-mouse IgG (GE Healthcare, UK), donkey anti-rabbit IgG (GE Healthcare, UK). Amersham™ ECL and Amersham Select ECL western blotting detection systems (GE Healthcare, UK) were used to develop signals. Quantifications of images from western blot films were performed using ImageJ (National Institutes of Health, Bethesda, MD).
Equal aliquots of 293T cell lysates with over-expressing Flag-DBC1 were immunoprecipitated using Flag-M2 agarose beads as described above. After four brief washes with lysis buffer, the beads aliquots were incubated with the freshly dissolved NAD^+ or other chemicals for 1 hr at 4° C. with gentle rotation then centrifuged (5000 rpm, 5 min). After completely removing supernatant, the beads were boiled in SDS loading buffer, analyzed by SDS-PAGE, and probed with antibodies.

Assay [2] relates to PARP1-DBC1 interaction. Put plainly: PARP1-DBC1 interaction in treated 293T cells (co-immunoprecipitation). Type of assay: cell-based, human. The note with it: for effect on the PARP1-DBC1 interaction in 293T cells: PJ34 or 3-AB (2 mM) for 24 hrs. The procedure: 293T, MCF-7, DBC1 wild type and knockout MEFs (a gift from Dr. Eduardo N. Chini from Mayo Clinic) were cultured in Dulbecco's modified Eagle's medium (DMEM, Mediatech, Inc., Herndon, VA) supplemented with 10% fetal bovine serum (Gemini Bio-products, Woodland, CA) with the presence of penicillin and streptomycin (Corning, Manassas, VA). Retroviruses expressing wild-type or mutant Flag-DBC1 proteins were produced by transfecting 293T cells with plasmids encoding VSV-G, Gag-Pol, and pMSCVpuro-Flag-DBC1 constructs using Lipofectamine® 2000 according to the manufacturer's instructions. Media was changed the day after transfection, and virus-containing media was harvested between 48 and 72 hours post-transfection and filtered through a […] (Corning, Manassas, VA). The filtered media was incubated with the target cells in the presence of 5 μg/mL polybrene (Sigma) and selection started using puromycin (2 μg/mL) 48 hrs post-infection. Lentivirus for knocking down DBC1 or SIRT1 was produced by transfecting 293T with psPAX2 (Addgene plasmid #12260), pMD2.G (Addgene plasmid #12259) and shRNA constructs using Lipofectamine® 2000. The virus harvest, infection and selection were same as described for retrovirus production. The transfections of siRNA were performed using Lipofectamine® RNAiMAX, according to the manufacturer's instructions.
as §1
(§3) Cell lysates or Co-IP samples were run on homemade 10% or 4-20% gradient pre-cast SDS-PAGE gels (Bio-Rad) under reducing conditions, and then transferred to a polyvinylidene difluoride (PVDF) membrane (Millipore). Membranes were blocked with 5% non-fat dry milk in TBS-Tween (10 mM Tris HCl, pH 7.5, 150 mM NaCl, and 0.1% Tween-20). […] Quantifications of images from western blot films were performed using ImageJ (National Institutes of Health, Bethesda, MD).

Assay [3] concerns PAR. Description: PAR induced by paraquat in 293T cells (western blot). Type of assay: cell-based, human. The note with it: 3-AB 2 mM, paraquat 0.5 mM. The procedure: as §2, with “The antibodies ATM, ATR, BRCA1, Chk1, Chk2, DNA-PKs and XRCC1 were all from the Bethyl Laboratories. Phospho-Chk1, phospho-Chk2 and phosphor-p53 antibodies were from a DNA Damage Antibody Sampler Kit (Cell Signaling #9947). Secondary antibodies were horseradish peroxidase-coupled sheep anti-mouse IgG (GE Healthcare, UK), donkey anti-rabbit IgG (GE Healthcare, UK). Amersham™ ECL and Amersham Select ECL western blotting detection systems (GE Healthcare, UK) were used to develop signals.” left out

Assay [4] has as its system p53 and RAD51 pulled down with Flag-DBC1. Put plainly: Interaction of DNA repair proteins with Flag-DBC1 in 293T cells. Type of assay: cell-based, human. As to conditions: 0.5 mM, 24 hrs. The procedure:
as §1, §3

In assay [5] the target is T2, DBC1WT (Homo sapiens, UniProt Q8N163).
T2 construct: expressed in transfected cells; host or cells: 293T cells
T2 sequence (Q8N163 whole entry): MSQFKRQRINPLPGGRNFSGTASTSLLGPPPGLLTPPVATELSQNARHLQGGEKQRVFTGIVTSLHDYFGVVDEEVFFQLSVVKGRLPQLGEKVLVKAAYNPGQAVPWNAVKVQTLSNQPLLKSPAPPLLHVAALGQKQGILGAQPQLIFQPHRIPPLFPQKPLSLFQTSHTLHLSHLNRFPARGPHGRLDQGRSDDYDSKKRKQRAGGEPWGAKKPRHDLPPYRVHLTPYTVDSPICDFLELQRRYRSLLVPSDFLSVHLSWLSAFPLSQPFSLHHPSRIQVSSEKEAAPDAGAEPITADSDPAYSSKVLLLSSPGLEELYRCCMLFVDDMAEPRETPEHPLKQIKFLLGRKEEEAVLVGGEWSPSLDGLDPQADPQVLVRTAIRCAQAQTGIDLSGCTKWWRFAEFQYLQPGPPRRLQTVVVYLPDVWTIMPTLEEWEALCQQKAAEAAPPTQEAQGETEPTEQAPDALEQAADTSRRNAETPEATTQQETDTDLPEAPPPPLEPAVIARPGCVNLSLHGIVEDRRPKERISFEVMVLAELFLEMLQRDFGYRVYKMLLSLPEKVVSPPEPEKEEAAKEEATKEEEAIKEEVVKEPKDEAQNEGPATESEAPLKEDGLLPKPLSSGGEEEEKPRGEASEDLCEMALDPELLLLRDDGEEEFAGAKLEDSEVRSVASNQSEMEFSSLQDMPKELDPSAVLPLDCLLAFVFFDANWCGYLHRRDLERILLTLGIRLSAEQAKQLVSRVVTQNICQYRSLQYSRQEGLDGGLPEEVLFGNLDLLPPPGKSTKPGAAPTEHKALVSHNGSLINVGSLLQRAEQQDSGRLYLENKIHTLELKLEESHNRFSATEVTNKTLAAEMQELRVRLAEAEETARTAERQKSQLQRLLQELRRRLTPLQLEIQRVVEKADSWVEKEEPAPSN
Description: Biotin-NAD+ binding assay, DBC1 wild type. As to conditions: unlabeled competitor. The procedure:
Lysates of 293T cells expressing Flag-DBC1 or V5/his-DBC1 were prepared as described above and bound to an anti-Flag high sensitivity M2 coated 96-well plate (Sigma) or His-Select® high sensitivity nickel coated 96-well plate (Sigma) by incubating for 3-4 hrs at 4° C., then washed three times with lysis buffer. Biotin-NAD^+ (Trevigen), or specified molecules were incubated in the plates overnight at 4° C. After washing twice with PBS (pH 7.4) and twice with PBS-T (0.1% Triton X-100), streptavidin-HRP (Trevigen, 1:500) in PBS-T was added to each well and incubated for 1 hr at room temperature. After washing twice with PBS (pH 7.4) and twice with PBS-T, 100 μl of PeroxyGlow™ A and B chemiluminescent substrates (Trevigen) mixture (1:1) was added into each well for 1 min followed by immediate quantification of chemiluminescence on a EnSpire 2300 Multi-label reader (Perkin Elmer). Binding curves were calculated using the “one site, specific binding” formula of GraphPad.

Assay [6] concerns cellular NAD^+ levels. Put plainly: NAD+ quantification in 293T cells. Type of assay: cell-based, human. As to conditions: treatment of 293T cells. The procedure: NAD^+ quantification was conducted with an NAD/NADH Quantification Kit (Biovision, Milpitas, CA) following the manufacturer's instructions and normalized to soluble protein content.
Assay [7] has as its system SIRT1-DBC1 interaction. Description: SIRT1-DBC1 interaction in treated 293T cells. Type of assay: cell-based, human. As to conditions: FK866 (5 nM, 24 hrs). The procedure: 293T, MCF-7, DBC1 wild type and knockout MEFs (a gift from Dr. Eduardo N. Chini from Mayo Clinic) were cultured in Dulbecco's modified Eagle's medium (DMEM, Mediatech, Inc., Herndon, VA) supplemented with 10% fetal bovine serum (Gemini Bio-products, Woodland, CA) with the presence of penicillin and streptomycin (Corning, Manassas, VA). Retroviruses expressing wild-type or mutant Flag-DBC1 proteins were produced by transfecting 293T cells with plasmids encoding VSV-G, Gag-Pol, and pMSCVpuro-Flag-DBC1 constructs using Lipofectamine® 2000 according to the manufacturer's instructions. […]
Protein extracts from 293T or mouse liver tissues were lysed in ice-cold buffer (150 mM NaCl, 1 mM EDTA, 1 mM EGTA, 1% Triton X-100, 0.5% NP-40, 10 mM Tris HCl, pH 7.4) supplemented with protease inhibitors cocktail cOmplete tablets (Roche) and phosphatase inhibitor cocktail 2 and 3 (Sigma). Protein concentrations were determined by the Bradford protein assay (Bio-rad). […]
Cell lysates or Co-IP samples were run on homemade 10% or 4-20% gradient pre-cast SDS-PAGE gels (Bio-Rad) under reducing conditions, and then transferred to a polyvinylidene difluoride (PVDF) membrane (Millipore). […] Quantifications of images from western blot films were performed using ImageJ (National Institutes of Health, Bethesda, MD).

T1 sequence (Q8N163 whole entry, one chain of several): as the sequence (Q8N163 whole entry) above

In the case of `NC(=O)C1=CN([C@@H]2O[C@H](COP(=O)(O)OP(=O)(O)OC[C@H]3O[C@@H](n4cnc5c(N)ncnc54)[C@H](O)[C@@H]3O)[C@@H](O)[C@H]2O)C=CC1` [NADH], the “effect on the PARP1-DBC1 complex” value in assay [1] (200 μM, 1 hr) is given as “less effective than NAD^+”.

`NC(=O)c1cccc(N)c1` [3-AB, 3-aminobenzamide]: the “effect on the PARP1-DBC1 interaction in 293T cells” value in assay [2] is listed as “no effect”. Besides, in assay [1] (2 mM, 1 hr), the “effect on the PARP1-DBC1 complex” value is listed as “no effect”. Moreover, in assay [3], the “PAR induced by paraquat” value was “inhibitory effect”.

Take `CN(C)CC(=O)Nc1ccc2[nH]c(=O)c3ccccc3c2c1` [PJ-34]: the “effect on the PARP1-DBC1 interaction in 293T cells” value in assay [2] is “no effect”.

In the case of `C[n+]1ccc(-c2cc[n+](C)cc2)cc1` [paraquat], in assay [4], the “interaction of p53 and RAD51 with Flag-DBC1” value is on record as “did not change”.

With `Nc1ncnc2c1ncn2[C@@H]1O[C@H](COP(=O)(O)OP(=O)(O)OC[C@H]2OC(O)[C@H](O)[C@@H]2O)[C@@H](O)[C@H]1O` (stereo partly drawn) [ADPr, ADP-ribose], the “effect on the PARP1-DBC1 complex” value in assay [1] (200 μM, 1 hr) is “no effect”.

Consider `NC(=O)c1ccc[n+]([C@@H]2O[C@H](COP(=O)([O-])OP(=O)(O)OC[C@H]3O[C@@H](n4cnc5c(N)ncnc54)[C@H](O)[C@@H]3O)[C@@H](O)[C@H]2O)c1` [unlabeled NAD^+], for which, in assay [5], the “competition of labeled NAD^+ bound to DBC1” value is reported as “competed off”.

In the case of `Nc1ncnc2c1ncn2[C@@H]1O[C@H](COP(=O)(O)OP(=O)(O)OP(=O)(O)O)[C@@H](O)[C@H]1O` [ATP, adenosine triphosphate], the “effect on the PARP1-DBC1 complex” value in assay [1] (200 μM, 1 hr) was “no effect”.

As for `NC(=O)c1cccnc1` [NAM, Nicotinamide], in assay [1] (500 μM, 1 hr), the “effect on the PARP1-DBC1 complex” value is reported as “no effect”.

Regarding `NC(=O)c1ccc[n+]([C@@H]2O[C@H](CO)[C@@H](O)[C@H]2O)c1` [NR, Nicotinamide Riboside], the “cellular NAD^+ levels” value in assay [6] is “raises”. For the same compound, in assay [2] (treatment of 293T cells with NR), the “PARP1-DBC1 complex in 293T cells” value is listed as “dissociates”. Besides, in assay [1] (200 μM, 1 hr), the “effect on the PARP1-DBC1 complex” value is “no effect”.

On to `Nc1ncnc2c1ncn2[C@@H]1O[C@H](CO)[C@@H](O)[C@H]1O` [adenosine], for which the “effect on the PARP1-DBC1 complex” value in assay [1] (200 μM, 1 hr) is recorded as “no effect”.

With `O=C(/C=C/c1cccnc1)NCCCCC1CCN(C(=O)c2ccccc2)CC1` [FK866], the “PARP1-DBC1 interaction in HEK293T cells” value in assay [2] (FK866, 24 hrs) was “increased”. In assay [7], the “SIRT1-DBC1 interaction in cells” value is “slightly diminished”.

Regarding `NC(=O)c1ccc[n+]([C@@H]2C[C@H](COP(=O)(O)OP(=O)(O)OC[C@H]3O[C@@H](n4cnc5c(N)ncnc54)[C@H](O)[C@@H]3O)[C@@H](O)[C@H]2O)c1` [Carba-NAD, Carbanicotinamide adenine dinucleotide], the “effect on the PARP1-DBC1 complex” value in assay [1] (non-hydrolysable NAD^+ analogue, concentration not given) was “abrogated”.

As to `Nc1ncnc2nc[nH]c12` [adenine], in assay [1] (200 μM, 1 hr), the “effect on the PARP1-DBC1 complex” value is listed as “less effective than NAD^+”.
